# Test results as given in patent publication US11597708B2, “Inhibitors of heat shock factors and uses thereof” (HSF Pharmaceuticals SA, priority 2016, dated 2023).
# Assays:
# [1] = molecular target: T1, HSF1 DNA-binding activity (Homo sapiens, UniProt Q00613); experiment: EMSA of extracts of heat-treated HeLa cells exposed to compound; type: cell-based; settings: HeLa cells exposed to different concentrations, heat-treated 43° C./30 min; effect of IHSF 058 at 25 or 50 μM
# T1 construct: functionally linked to an hsp70b promoter and therefore controlled by endogenous HSF1; endogenous in cells; host or cells: HeLa cells / HeLa-derived cell line Z74
# T1 sequence (Q00613 whole entry): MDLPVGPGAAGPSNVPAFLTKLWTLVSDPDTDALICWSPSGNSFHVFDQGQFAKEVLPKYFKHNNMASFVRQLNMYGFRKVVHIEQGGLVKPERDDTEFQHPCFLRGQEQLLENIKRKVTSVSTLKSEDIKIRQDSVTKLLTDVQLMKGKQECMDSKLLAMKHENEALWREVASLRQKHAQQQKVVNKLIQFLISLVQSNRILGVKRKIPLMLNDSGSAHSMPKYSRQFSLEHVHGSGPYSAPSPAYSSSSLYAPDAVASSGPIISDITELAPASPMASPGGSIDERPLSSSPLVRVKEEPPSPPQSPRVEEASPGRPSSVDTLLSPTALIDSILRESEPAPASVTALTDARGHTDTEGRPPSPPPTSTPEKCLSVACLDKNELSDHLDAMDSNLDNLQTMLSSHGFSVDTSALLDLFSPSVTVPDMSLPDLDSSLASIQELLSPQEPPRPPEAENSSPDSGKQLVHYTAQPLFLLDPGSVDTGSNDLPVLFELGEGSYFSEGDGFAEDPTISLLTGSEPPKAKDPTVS
# Description: (§1) FIG. 3. (A) HeLa cell cultures were mock-treated (−) or exposed for 2 hours to the indicated concentrations of compounds 058 or 115 and then heat-treated (HS) at 43° C. for 30 min. Top panels: HSF1 DNA-binding activities in cell extracts were determined by EMSA. The panels show the major HSF1-HSE DNA probe complexes. Middle panels: HSF1 levels assayed by western blot (WB). GAPDH served as a loading control. Bottom panels: HSF1 homooligomerization. Aliquots of extracts were EGS-treated and then analyzed by anti-HSF1 WB. The positions of pre-stained molecular weight marker proteins (MW, in thousands) are indicated to the right. Asterisks indicate the positions of monomeric and trimeric HSF1, respectively. (B) Relative occupancy of the hspa1a promoter was assessed by chromatin immunoprecipitation assay of HeLa cell cultures mock-treated (−) or treated with compounds 058 or 115 at 12.5 μM concentrations for 2 hours and then heat-treated (HS) at 43° C. for 30 min. Chromatin fragments were immunoprecipitated using HSF1 antibodies or an F4/80 LR (control) antibody, and associated hspa1a promoter DNA was quantified by real-time PCR. […]
# HSF1 levels = molecular target: T2, HSF1 levels (Homo sapiens, UniProt Q00613); experiment: Anti-HSF1 western blot of HeLa cell extracts; type: cell-based; settings: same extracts of exposed, heat-treated HeLa cells
# T2 construct: functionally linked to an hsp70b promoter and therefore controlled by endogenous HSF1; endogenous in cells; host or cells: HeLa cells / HeLa-derived cell line Z74
# T2 sequence (Q00613 whole entry): as above
# Description: as §1
# HSF1 oligomerization = molecular target: T3, HSF1 oligomerization (Homo sapiens, UniProt Q00613); experiment: EGS cross-linking and anti-HSF1 western blot (HSF1 oligomerization); type: cell-based; settings: extracts of exposed, heat-treated HeLa cells
# T3 construct: functionally linked to an hsp70b promoter and therefore controlled by endogenous HSF1; endogenous in cells; host or cells: HeLa cells / HeLa-derived cell line Z74
# T3 sequence (Q00613 whole entry): as above
# Description: FIG. 3. (A) HeLa cell cultures were mock-treated (−) or exposed for 2 hours to the indicated concentrations of compounds 058 or 115 and then heat-treated (HS) at 43° C. for 30 min. Top panels: HSF1 DNA-binding activities in cell extracts were determined by EMSA. The panels show the major HSF1-HSE DNA probe complexes. Middle panels: HSF1 levels assayed by western blot (WB). GAPDH served as a loading control. Bottom panels: HSF1 homooligomerization. Aliquots of extracts were EGS-treated and then analyzed by anti-HSF1 WB. The positions of pre-stained molecular weight marker proteins (MW, in thousands) are indicated to the right. Asterisks indicate the positions of monomeric and trimeric HSF1, respectively. (B) Relative occupancy of the hspa1a promoter was assessed by chromatin immunoprecipitation assay of HeLa cell cultures mock-treated (−) or treated with compounds 058 or 115 at 12.5 μM concentrations for 2 hours and then heat-treated (HS) at 43° C. for 30 min. Chromatin fragments were immunoprecipitated using HSF1 antibodies or an F4/80 LR (control) antibody, and associated hspa1a promoter DNA was quantified by real-time PCR.
# We also investigated whether the compounds were capable of interfering with HSF1 oligomerization. Aliquots of the extracts were subjected to cross-linking with EGS (ethylene glycolbis(succinimidylsuccinate)) and then re-analyzed by anti-HSF1 WB. […]
# [2] = tested on: hsp70b/hspa7 promoter-driven rluc gene; experiment: Reverse transcription real-time PCR of rluc mRNA in Z74 cells; type: cell-based, human; settings: for rluc mRNA levels at 1 μM: 1 μM concentrations of the IHSF; for transcript levels of the hsp70b/hspa7 promoter-driven rluc gene: 2 h exposure at different concentrations, heat treatment, 1 h post-incubation at 37° C.
# Description: (§2) FIG. 4. (A) rluc, hspa7 and hspa1a mRNA levels in Z74 cells mock-exposed (−) or exposed to the indicated concentrations of compounds 058 or 115 for 2 hours, heat-treated (HS) at 43° C. for 30 min and post-incubated for one hour at 37° C. mRNA levels were quantified by reverse transcription-real-time PCR. (B) HSP72 levels in HeLa cells mock-exposed (−) or exposed to the indicated concentrations of compounds 058 or 115 for 2 hours, heat-treated (HS) at 43° C. for 30 min and post-incubated for 6 hours at 37° C. HSP72 levels were estimated by HSP72 WB. GAPDH levels served as “loading controls”.
# (§3) To assess the transcriptional effects of the IHSF, cultures of Z74 cells were exposed for two hours to IHSF 058 or IHSF 115 at different concentrations, or to vehicle. Following heat treatment and a one-hour post-incubation at 37° C., extracts were prepared, and polyadenylated rluc, hsp70b (hspa7) and hspa1a RNA was quantified by reverse transcription and real-time PCR. […] IHSF 115 had somewhat more important effects than IHSF 058. […] We tend to discount the possibility that the latter data report effects on transcript stability.
# hspa1a = experiment: Reverse transcription real-time PCR of hspa1a mRNA in Z74 cells; type: cell-based, human; settings: heat-treated, somewhat less sensitive than rluc gene
# Description: as §2, §3
# inducible Hsp70 (HSP72) = experiment: HSP72 western blot in heat-treated HeLa cells; type: cell-based, human
# Description: as §2
# [3] = Aqueous solubility (statement); type: physicochemical
Compound,heat-induced HSF1 DNA-binding activity (EMSA) [1],HSF1 levels (anti-HSF1 western blot) (HSF1 levels),"HSF1 oligomerization (EGS cross-linking, anti-HSF1 WB) (HSF1 oligomerization)",rluc mRNA levels at 1 μM [2],transcript levels of the hsp70b/hspa7 promoter-driven rluc gene [2],hspa1a transcript accumulation (hspa1a),"heat-induced accumulation of inducible Hsp70 (WB), relative effectiveness (inducible Hsp70 (HSP72))",aqueous solubility [3],heat-induced accumulation of inducible Hsp70 (WB) (inducible Hsp70 (HSP72); 3.125 μM),heat-induced accumulation of inducible Hsp70 (WB) (inducible Hsp70 (HSP72); 6.25 μM)
"CCOC(=O)/C=C/C(=O)Nc1ncc(-c2cccnc2)s1 [IHSF 058, (E)-3-(5-Pyridm-3-yl-thiazol-2-ylcarbamoyl)-acrylic acid ethyl ester]",important reductions,reduced levels of HSF1,No impairment of oligomerization,substantially reduced,dose-dependent reduction,Dose-dependent inhibitory effects,less effective than IHSF 115,limited,,
"CN(C(=O)/C=C/C1=NCCCO1)c1ncc(-c2cccnc2)s1 [IHSF 115, (E)-3-(5,6-Dihydro-4H-[1,3]oxazin-2-yl)-N-methyl-N-(5-pyridin-3-yl-thiazol-2-yl)-acrylamide]",failed to have a similar effect,did not affect HSF1 levels,No impairment of oligomerization,substantially reduced,dose-dependent reduction,Dose-dependent inhibitory effects,,limited,detectable inhibitory effects,more substantial effects
